Assay [1] relates to caspase 3/7 in K562 cells. The experiment in a line: Caspase-3/7 activity assay (Apo-ONE) in K562 cells. It counts as cell-based, human. The following applies: K562, 18 h, test compound at 5xIC50, staurosporine 1 μM; vs 1% DMSO. How it is done: After incubation for 18 h, K562 cells were lysed and the activity of caspase 3/7 was measured using a profluorescent peptide substrate.
First, 20 × 10^3 K562 cells were seeded on each well of a 96-well plate in RPMI 1640 medium supplemented with 10% fetal calf serum and antibiotics. Cells were grown for 24 h at 37 °C and 5% CO2. Test dicarboximides were dissolved in DMSO and added to cell culture to the final concentration of 5 × IC50. […] Cells were exposed to test compounds for 18 h at 37 °C and 5% CO2. Subsequently, the activity of caspase 3 and 7 was measured by Apo-ONE® Homogeneous Caspase-3/7 Assay (Promega, Madison, WI, USA) according to the manufacturer’s instructions. Briefly, the cells were lysed and incubated for 1.5 h with a profluorescent substrate for caspase 3 and 7. Next, the fluorescence was read at an excitation wavelength of 485 nm and emission of 520 nm with a FLUOStar Omega microplate reader (BMG-Labtech, Offenburg, Germany).

Assay [2] deals with K562 (myelogenous leukemia cell line). The experiment in a line: MTT cytotoxicity assay, K562. The following applies: 48 h incubation, average (SD) of three experiments, read-out: IC50 K562. In kind it is cell-based, human.
The test system of assay [3] is HUVEC (normal endothelial) cells. The experiment in a line: MTT cytotoxicity assay, HUVEC. In kind it is cell-based. The following applies: Homo sapiens, 48 h incubation, average (SD) of three experiments, read-out: IC50 HUVEC. Background: Tetrazolium assays rely on reduction of a dye to a coloured formazan, in cell work by metabolically active cells.
The test system of assay [4] is plasmid DNA (pcDNA3.1HisC). Briefly: DNA-cleavage protection assay (BamHI digestion of plasmid DNA). As to conditions: 100 µM, overnight 37 °C, then BamHI 3 h. It counts as biochemical. How it is done:
A DNA-cleavage protection assay has been successfully used for the identification of compounds that bind DNA either covalently or noncovalently. Such binding may result in DNA being less susceptible to enzymatic cleavage. […] It was also reported that naphtalenoimides or indolomaleimides intercalate into DNA [13, 14]. […] In CD studies, a synthetic 23-nt duplex DNA or bovine thymus DNA was incubated with compound Ic or daunorubicin (reference compound). […] Using a DNA-cleavage protection assay, we investigated whether selected compounds 2c, 2d, and 2f and 3c, 3d, and 3f interact with a plasmid DNA, resulting in increased resistance to endonucleolytic cleavage. Plasmid DNA (pcDNA3.1HisC) containing a single BamHI cleavage site was incubated with test compounds and subsequently digested with BamH1 restriction endonuclease. Daunorubicin (a strong DNA-intercalating agent) was used as a reference compound. Non-digested plasmid DNA existed predominantly in the circular form; however, the superhelical and linear forms were also detected (Figure 5, lane 1). […] This observation can be explained by the higher lipophilicity of 3c, 3d, and 3f compared to 2c, 2d, and 2f, which may facilitate their more efficient binding to DNA.
First, 0.5 μg of plasmid DNA (pcDNAHisC, total length 5.5 kbp) containing a unique BamHI restriction site was dissolved in a 1× BamHI reaction buffer and incubated overnight at 37 °C with the test compounds or daunorubicin. Daunorubicin, a strong intercalating agent, was used as a positive control. The concentration of the test compounds and daunorubicin samples was 100 µM. In the next step, the reaction mixtures were digested with BamHI restriction endonuclease (2 U/μL) for 3 h at 37 °C. The total reaction volume was 10 μL. Products of the reaction were subjected to the 1% agarose gel electrophoresis in TBE buffer. The gel was stained with ethidium bromide, and DNA fragments were visualized under a UV lamp (GBox, Syngene).

Structures are written as SMILES. “Also recorded” adds a separate entry of the source. Read-outs that look alike come from different tables or passages of the source.

By IC50 is commonly meant the concentration that gives 50% inhibition.

As to `CCN(CC)CC(O)CN1C(=O)C2C(C1=O)C1(c3ccccc3)CC2(c2ccccc2)C(c2ccccc2)=C1c1ccccc1` (stereo not drawn) [3d, 4-[3-(diethylamino)-2-hydroxypropyl]-1,7,8,9-tetraphenyl-4-azatricyclo[5.2.1.0^2,6]dec-8-ene-3,5-dione], the “activity of caspase 3/7” value in assay [1] was “activated caspase 3/7 to a lesser extent; also recorded: activated caspase 3 and 7”. In addition, the concentration for half-maximal inhibition (IC50) in assay [2] was 3.2 µM; in assay [2] (Homo sapiens, K562, 48 h), under 6 µM; in assay [3] it was 0.3 µM. The “protection of plasmid DNA from BamHI digestion (circular DNA left)” value (“protection of plasmid DNA” for short) in assay [4] is recorded as “interaction seems to be stronger”.

Turning to `CC(C)(C)NCC(O)CN1C(=O)C2C(C1=O)C1(c3ccccc3)CC2(c2ccccc2)C(c2ccccc2)=C1c1ccccc1` (stereo not drawn) [3c, 4-[3-(tert-butylamino)-2-hydroxypropyl]-1,7,8,9-tetraphenyl-4-azatricyclo[5.2.1.0^2,6]dec-8-ene-3,5-dione], the “activity of caspase 3/7” value in assay [1] is “activated caspase 3/7 to a lesser extent; also recorded: activated caspase 3 and 7”. Also, the IC50 in assay [3] was found to be 0.4 µM. Moreover, the “protection of plasmid DNA” value in assay [4] is given as “interaction seems to be stronger”.

With `CCC12C(=O)C(CC)(C(c3ccccc3)=C1c1ccccc1)C1C(=O)N(CC(O)CNC(C)(C)C)C(=O)C12` (stereo not drawn) [2c, 4-[3-(tert-butylamino)-2-hydroxypropyl]-1,7-diethyl-8,9-diphenyl-4-azatricyclo [5.2.1.0^2,6]dec-8-ene-3,5,10-trione], in assay [1], the “activity of caspase 3/7” value is “over eight-fold increase in caspase activity; also recorded: activated caspase 3 and 7”. Further, the IC50 in assay [2] is 4 µM; in assay [2] (Homo sapiens, K562, 48 h), under 6 µM; in assay [3], 3.3 µM. The “protection of plasmid DNA” value in assay [4] is recorded as “the circular form was also detected”.

In the case of `CCN(CC)CC(O)CN1C(=O)C2C(C1=O)C1(CC)C(=O)C2(CC)C(c2ccccc2)=C1c1ccccc1` (stereo not drawn) [2d, 4-[3-(diethylamino)-2-hydroxypropyl]-1,7-diethyl-8,9-diphenyl-4-azatricyclo [5.2.1.0^2,6]dec-8-ene-3,5,10-trione], the “activity of caspase 3/7” value in assay [1] is “over eight-fold increase in caspase activity; also recorded: activated caspase 3 and 7”. For the same molecule, the IC50 in assay [2] was 5.8 µM; in assay [2] (Homo sapiens, K562, 48 h), under 6 µM; in assay [3], 3.6 µM. In addition, the “protection of plasmid DNA” value in assay [4] is “the circular form was also detected”.

For the origin of these results see PMC8122671, “New Succinimides with Potent Anticancer Activity: Synthesis, Activation of Stress Signaling Pathways and Characterization of Apoptosis in Leukemia and Cervical Cancer Cells” (International Journal of Molecular Sciences, 2021).
